Tests used:
mGRFT = mGRFT (Griffithsia sp., UniProt P84801, INS16GS); assay: Isothermal titration calorimetry (ITC) binding to mGRFT; details: two-site model
[1] = molecular target: monomeric Griffithsin (mGRFT) (Griffithsia sp., UniProt P84801, INS16GS); assay: Biolayer interferometry (BLI) binding to mGRFT; details: for Kd: mGRFT as the analyte, 25 °C
Experimental: (§1) All BLI experiments were performed at 25 °C on an Octet R2 instrument using SA or NiNTA biosensors. Ligand was loaded onto the biosensors followed by a baseline then association and dissociation phase. Biosensors were regenerated and this process was repeated for varying concentrations of analyte. Data was processed in Octet analysis studio 13.0. The samples were double referenced, first to a reference sensor then to a well containing no analyte. The trace responses were aligned to the average of the final 5s of the baseline and inter-step corrected to the dissociation step. A Savitzky-Golay filter was applied to reduce high frequency noise. The association and dissociation phases were fit globally to a 1:1 single exponential binding model. All conditions were run in triplicate.

[2] = test system: mGRFT binding to biotinylated Man-9; assay: BLI competition assay against immobilized Man-9; set-up: species or system Griffithsia; details: Man-9 immobilized
Experimental: To further probe this ultra-high-affinity interaction, we performed a BLI competition assay to determine whether the [2DEG]^2+ complex could outcompete mGRFT’s natural ligand, Man-9. Biotinylated Man-9 was immobilized on the BLI biosensor tip, which was then dipped into solutions containing mGRFT that was pre-incubated with varying concentrations of [2DEG]^2+. […] More broadly, this finding highlights the power of rational synthetic design to generate glycomimetics capable of outperforming their biological counterparts.
as §1

GRFT = molecular target: GRFT; set-up: method as in PMID 17340634; details: free mannose; cited from earlier work

Chain of monomeric Griffithsin (mGRFT) (P84801 whole entry, stated change not applied): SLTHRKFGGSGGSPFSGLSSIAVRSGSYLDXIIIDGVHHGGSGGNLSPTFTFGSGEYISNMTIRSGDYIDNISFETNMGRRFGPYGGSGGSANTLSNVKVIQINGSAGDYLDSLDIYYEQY
Chain of mGRFT (P84801 whole entry, stated change not applied): as above

In the case of OC[C@H]1O[C@H](OCCOCCOc2ccc(/C=N/CCN(CC/N=C/c3ccc(OCCOCCO[C@H]4O[C@H](CO)[C@@H](O)[C@H](O)[C@@H]4O)cn3)CC/N=C/c3ccc(OCCOCCO[C@H]4O[C@H](CO)[C@@H](O)[C@H](O)[C@@H]4O)cn3)nc2)[C@@H](O)[C@@H](O)[C@@H]1O.[Fe+2] [[1DEG]^2+, [Fe(DEGman)3][SO4]], the “stoichiometry of each interaction” value (mGRFT) is reported as “one”.

For OC[C@H]1O[C@H](O[C@@H]2[C@@H](OCCOCCOc3ccc(/C=N/CCN(CC/N=C/c4ccc(OCCOCCO[C@H]5O[C@H](CO)[C@@H](O)[C@H](O)[C@@H]5O[C@H]5O[C@H](CO)[C@@H](O)[C@H](O)[C@@H]5O)cn4)CC/N=C/c4ccc(OCCOCCO[C@H]5O[C@H](CO)[C@@H](O)[C@H](O)[C@@H]5O[C@H]5O[C@H](CO)[C@@H](O)[C@H](O)[C@@H]5O)cn4)nc3)O[C@H](CO)[C@@H](O)[C@@H]2O)[C@@H](O)[C@@H](O)[C@@H]1O.[Fe+2] [[2DEG]^2+], the dissociation rate kd ([1]; 1:1 binding model) was “no measurable dissociation”, the “reduction of BLI response in the association phase” value ([2]; 0.5 molar equivalents of complex pre-incubated with mGRFT) was “approximately 50%” and the “reduction of BLI response in the association phase” value ([2]; two molar equivalents of complex pre-incubated with mGRFT) was “nearly eliminating the response entirely”.

In the case of OC[C@H]1OC(O)[C@@H](O)[C@@H](O)[C@@H]1O (stereo partly shown) [free mannose, mannose], the Kd (GRFT) is listed as 102 µM.

For Man-9, the Kd ([1]; biotinylated Man-9 as the ligand) was 0.067 ± 0.001 µM.

Compound Man-5 has a Kd ([1]; biotinylated Man-5 as the ligand, kinetic fitting and steady state analysis) of 40 ± 10 µM.

Reference: paper doi:10.64898/2025.12.17.694979, “Tunable multivalent Fe(II)-based glycoassemblies as mimetics for native high-mannose glycans” (bioRxiv, 2025)
